Measured values published in the supplement of paper PMC11208160.

Assay: recombinant UMI read abundance after kanamycin selection (control-corrected) (log10(CPM+1)); higher = more efficient recombination; extreme values may be limits of the assay; sequences stand for … in AGTGCAGAGAAAATCGGCCAGTTTTCTCTGCCTGCAGTCCGCATGCCGTGGGACCCCTTGGGTTCTAACCTGTTGCCTAGATTTATGCAGCGGACTGCCTTTCTCCCAAAGTGATAAACCGG…AGGTTGGTTTCACT; site = the 11-nt donor
Summary of the method: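 Two replicates each of selected and unselected plating were used in this pooled Escherichia coli screen of donor and donor-binding-loop pairs for the IS621 bridge recombinase. Selection was with IPTG (0.07 mM) and kanamycin. Counts of recombinant UMIs, amplified across the donor–target junction, were converted to CPM, averaged, scaled by control-derived factors and reported as log10(CPM+1).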
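Also: IS621 bridge recombinase in Escherichia coli cells against a fixed T5 target plasmid.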

Sequence	recombinant UMI read abundance (log10)
CGATCCTCATGGACCGGTTTTCCCGGTAATCCGTATTTGCT (site CGATCGTCTAG)	0
CGATCCTCATGGACCGGTTTTCCCGGTAATCCGTATTTGCT (site CGATCTTCTAG)	0
CGATCGACATGGACCGGTTTTCCCGGTAATCCGTATTTGAT (site CGATCGACTAA)	0.0179
CGATCGACATGGACCGGTTTTCCCGGTAATCCGTATTTGAT (site CGATCGACTAC)	0
CGATCGACATGGACCGGTTTTCCCGGTAATCCGTATTTGAT (site CGATCGACTAG)	0
CGATCGACATGGACCGGTTTTCCCGGTAATCCGTATTTGAT (site CGATCGACTAT)	0.807
CGATCGCCATGGACCGGTTTTCCCGGTAATCCGTATTTGTT (site CGATCGACTAA)	0.0236
CGATCGCCATGGACCGGTTTTCCCGGTAATCCGTATTTGTT (site CGATCGCCTAA)	0.142
CGATCGCCATGGACCGGTTTTCCCGGTAATCCGTATTTGTT (site CGATCGGCTAA)	0
CGATCGCCATGGACCGGTTTTCCCGGTAATCCGTATTTGTT (site CGATCGTCTAA)	1.46
CGATCGTCATGGACCGGTTTTCCCGGTAATCCGTATTTGCT (site CGATCATCTAG)	2.15
CGATCGTCATGGACCGGTTTTCCCGGTAATCCGTATTTGCT (site CGATCCTCTAG)	0
CGATCGTCATGGACCGGTTTTCCCGGTAATCCGTATTTGCT (site CGATCGTCTAG)	2.46
CGATCGTCATGGACCGGTTTTCCCGGTAATCCGTATTTGCT (site CGATCTTCTAG)	0
CGATCTACATGGACCGGTTTTCCCGGTAATCCGTATTTGTT (site CGATCAACTAA)	0.012
CGATCTACATGGACCGGTTTTCCCGGTAATCCGTATTTGTT (site CGATCCACTAA)	0.0103
CGATCTACATGGACCGGTTTTCCCGGTAATCCGTATTTGTT (site CGATCGACTAA)	0.00912
CGATCTACATGGACCGGTTTTCCCGGTAATCCGTATTTGTT (site CGATCTACTAA)	0.246
CGATCTGCATGGACCGGTTTTCCCGGTAATCCGTATTTGCT (site CGATCATCTAG)	0
CGATCTGCATGGACCGGTTTTCCCGGTAATCCGTATTTGCT (site CGATCTGCTAG)	1.72
CGATGACCATGGACCGGTTTTCCCGGTAATCCGTATTTGCT (site CGATCATCTAG)	0
CGATGACCATGGACCGGTTTTCCCGGTAATCCGTATTTGCT (site CGATGACCTAG)	0
CGATGATCATGGACCGGTTTTCCCGGTAATCCGTATTTGAA (site CGATGATCTTT)	2.86
CGATTAGCATGGACCGGTTTTCCCGGTAATCCGTATTTGCT (site CGATCATCTAG)	0
CGATTAGCATGGACCGGTTTTCCCGGTAATCCGTATTTGCT (site CGATTAGCTAG)	0

Sequence	recombinant UMI read abundance (log10)
CGATTATCATGGACCGGTTTTCCCGGTAATCCGTATTTGAC (site CGATTATCTGT)	1.98
CGATTATCATGGACCGGTTTTCCCGGTAATCCGTATTTGAC (site CTAGTATCTGT)	1.07
CGATTATCATGGACCGGTTTTCCCGGTAATCCGTATTTGCA (site CGATCATCTAG)	0
CGATTATCATGGACCGGTTTTCCCGGTAATCCGTATTTGCA (site CGATTATCTTG)	2.39
CGATTATCATGGACCGGTTTTCCCGGTAATCCGTATTTGTT (site CGATCATCTAG)	0
CGATTATCATGGACCGGTTTTCCCGGTAATCCGTATTTGTT (site CGATTATCTAA)	2.45
CGATTTACATGGACCGGTTTTCCCGGTAATCCGTATTTGCT (site CGATTTACTAG)	1.76
CGCAATCCATGGACCGGTTTTCCCGGTAATCCGTATTTGAG (site CGCAATCCTCT)	0.964
CGCACATCATGGACCGGTTTTCCCGGTAATCCGTATTTGCT (site CGAACATCTAG)	0
CGCACATCATGGACCGGTTTTCCCGGTAATCCGTATTTGCT (site CGCACATCTAG)	1.02
CGCACATCATGGACCGGTTTTCCCGGTAATCCGTATTTGCT (site CGGACATCTAG)	0
CGCACATCATGGACCGGTTTTCCCGGTAATCCGTATTTGCT (site CGTACATCTAG)	0
CGCACTCCATGGACCGGTTTTCCCGGTAATCCGTATTTGTT (site CGCACTCCTAA)	0.808
CGCACTCCATGGACCGGTTTTCCCGGTAATCCGTATTTGTT (site CGGAATCCTAA)	0
CGCATCACATGGACCGGTTTTCCCGGTAATCCGTATTTGCC (site CGCATCACTGG)	1.78
CGCATCTCATGGACCGGTTTTCCCGGTAATCCGTATTTGTG (site CGCATCTCTCA)	1.83
CGCATGCCATGGACCGGTTTTCCCGGTAATCCGTATTTGCA (site CGCATGCCTTG)	0.808
CGCCACACATGGACCGGTTTTCCCGGTAATCCGTATTTGTA (site CACCACACTTA)	0.727
CGCCACACATGGACCGGTTTTCCCGGTAATCCGTATTTGTA (site CCCCACACTTA)	0.261
CGCCACACATGGACCGGTTTTCCCGGTAATCCGTATTTGTA (site CGCCACACTTA)	1.95
CGCCACACATGGACCGGTTTTCCCGGTAATCCGTATTTGTA (site CTCCACACTTA)	0.241
CGCCATACATGGACCGGTTTTCCCGGTAATCCGTATTTGCT (site CGCCATACTAG)	1.64
CGCCATACATGGACCGGTTTTCCCGGTAATCCGTATTTGCT (site CGCCCTACTAG)	0.00847
CGCCATACATGGACCGGTTTTCCCGGTAATCCGTATTTGCT (site CGCCGTACTAG)	0
CGCCATACATGGACCGGTTTTCCCGGTAATCCGTATTTGCT (site CGCCTTACTAG)	0.046

Sequence	recombinant UMI read abundance (log10)
CGCCGCTCATGGACCGGTTTTCCCGGTAATCCGTATTTGCC (site CGCCGCTCTGG)	2.47
CGCCTAACATGGACCGGTTTTCCCGGTAATCCGTATTTGGG (site CGCCTAACTCC)	0.0879
CGCGAACCATGGACCGGTTTTCCCGGTAATCCGTATTTGAT (site CGAGAACCTAT)	0
CGCGAACCATGGACCGGTTTTCCCGGTAATCCGTATTTGAT (site CGCGAACCTAT)	0
CGCGAACCATGGACCGGTTTTCCCGGTAATCCGTATTTGAT (site CGGGAACCTAT)	0
CGCGAACCATGGACCGGTTTTCCCGGTAATCCGTATTTGAT (site CGTGAACCTAT)	0
CGCGATTCATGGACCGGTTTTCCCGGTAATCCGTATTTGGC (site CGCGATTCTGC)	1.61
CGCGCGCCATGGACCGGTTTTCCCGGTAATCCGTATTTGAG (site CGCGCGCCTCT)	0.0359
CGCGGTACATGGACCGGTTTTCCCGGTAATCCGTATTTGCT (site CGCAGTACTAG)	1.64
CGCGGTACATGGACCGGTTTTCCCGGTAATCCGTATTTGCT (site CGCCGTACTAG)	0
CGCGGTACATGGACCGGTTTTCCCGGTAATCCGTATTTGCT (site CGCGGTACTAG)	1.92
CGCGGTACATGGACCGGTTTTCCCGGTAATCCGTATTTGCT (site CGCTGTACTAG)	0.467
CGCGTCACATGGACCGGTTTTCCCGGTAATCCGTATTTGAC (site CGCGTCACTGT)	2.44
CGCGTGTCATGGACCGGTTTTCCCGGTAATCCGTATTTGAC (site CGCGTGTCTGT)	0
CGCTAATCATGGACCGGTTTTCCCGGTAATCCGTATTTGCT (site CGATCATCTAG)	0
CGCTAATCATGGACCGGTTTTCCCGGTAATCCGTATTTGCT (site CGCTAATCTAG)	1.97
CGCTACACATGGACCGGTTTTCCCGGTAATCCGTATTTGCT (site CACTACACTAG)	1.32
CGCTACACATGGACCGGTTTTCCCGGTAATCCGTATTTGCT (site CCCTACACTAG)	1.29
CGCTACACATGGACCGGTTTTCCCGGTAATCCGTATTTGCT (site CGCTACACTAG)	2.9
CGCTACACATGGACCGGTTTTCCCGGTAATCCGTATTTGCT (site CTCTACACTAG)	0.92
CGCTAGGCATGGACCGGTTTTCCCGGTAATCCGTATTTGGT (site AGCTAGGCTAC)	0.0207
CGCTAGGCATGGACCGGTTTTCCCGGTAATCCGTATTTGGT (site CGCTAGGCTAC)	0.0166
CGCTAGGCATGGACCGGTTTTCCCGGTAATCCGTATTTGGT (site GGCTAGGCTAC)	0.00627
CGCTAGGCATGGACCGGTTTTCCCGGTAATCCGTATTTGGT (site TGCTAGGCTAC)	0.0198
CGCTCAACATGGACCGGTTTTCCCGGTAATCCGTATTTGCC (site CGCTCAACTGG)	0.429
